Test results reported in patent publication US12215106B2, “Pharmaceutical compounds and therapeutic methods” (RUTGERS, THE STATE UNIVERSITY OF NEW JERSEY, priority 2018, dated 2025).
Where a name gives a salt, the structure may show the parent alone. Read-outs that look alike come from different tables or passages of the source.

Assay: Plasma pharmacokinetics and brain distribution after single IV, IP and oral administration
Type: in vivo
Conditions: for Kp at 0.08 h / Kp at 0.35 h / Kp at 1 h / Kp at 3 h / Kp at 6 h: read-out: Brain-to-plasma ratio
Procedure: The objective of this study was to investigate the plasma pharmacokinetics and brain distribution of Compound (14 in male C57BL/6 mice following a single intravenous, intraperitoneal and oral administration. A group of sixty-three male mice were divided into three groups (Group 1: 2 mg/kg/IV; Group 2: 10 mg/kg/IP and Group 3: 10 mg/kg/PO) with each group comprising of twenty-one mice.
Animals in Group 1 were administered intravenously with Compound 15 solution formulation in 5% NMP, 5% Solutol HS-15, 30% PEG-400 and 60% Captisol (20% w/v) at 2 mg/kg dose. […] Considering mortality intravenous dose was reduced to 2 mg/kg.
Animals in Group 2 and 3 were administered with Compound 15 solution formulation in 5% NMP, 5% Solutol HS-15, 30% PEG-400 and 60% Captisol (20% w/v) at a dose of 10 mg/kg by intraperitoneal and oral route respectively.
(§1) Blood samples (approximately 60 μL) were collected under light isoflurane anesthesia from retro orbital plexus from a set of three mice at 0.08, 0.35, 1, 3, 6, 12 and 24 hr. Plasma samples were separated by centrifugation of whole blood and stored below −70±10° C. until bioanalysis. Immediately after collection of blood, brain samples were collected from set of three mice at each time point. Brain samples were homogenized using ice-cold phosphate buffer saline (pH-7.4) in a ratio of 2 (buffer):1(brain); and homogenates were stored below −70±10° C. until analysis. Total homogenate volume was three times the brain weight. All samples were processed for analysis by protein precipitation using acetonitrile and analyzed with fit-for-purpose LC/MS/MS method (LLOQ2.00 ng/mL for plasma and 3.00 ng/g for brain). Pharmacokinetic parameters were calculated using the non-compartmental analysis tool of Phoenix WinNonlin® (Version 7.0). Pharmacokinetic parameters of Compound 15 are summarized below.
The objective of this study was to investigate the plasma pharmacokinetics and brain distribution of Compound 16 in male C57BL/6 mice following a single intravenous, intraperitoneal and oral administration. A group of sixty-three male mice were divided into three groups (Group 1: 10 mg/kg/IV; Group 2: 10 mg/kg/IP and Group 3: 10 mg/kg/PO) with each group comprising of twenty-one mice.
Animals in Group 1 were administered intravenously with Compound 16 solution formulation in 5% NMP, 5% Solutol HS-15 and 90% normal saline at 10 mg/kg dose.
Animals in Group 2 and 3 were administered with Compound 16 solution formulation in 5% NMP, 5% Solutol HS-15 and 90% normal saline at a dose of 10 mg/kg by intraperitoneal and oral route respectively.
as §1, with “(LLOQ—1.00” for “(LLOQ2.00”, “16” for “15”
The objective of this study was to investigate the plasma pharmacokinetics and brain distribution of Compound 17 in male C57BL/6 mice following a single intravenous, intraperitoneal and oral administration. A group of sixty-three male mice were divided into three groups (Group 1: 2 mg/kg/IV; Group 2: 10 mg/kg/IP and Group 3: 10 mg/kg/PO) with each group comprising of twenty-one mice. […]

[1] = male, C57BL/6, mouse, brain, ip, 10 mg/kg, IP 10 mg/kg
[2] = male, C57BL/6, mouse, brain, po, 10 mg/kg, PO 10 mg/kg
[3] = male, C57BL/6, mouse, in vivo, ip, 10 mg/kg
[4] = male, C57BL/6, mouse, in vivo, ip, 10 mg/kg, 12 h
[5] = male, C57BL/6, mouse, in vivo, ip, 10 mg/kg, 24 h
[6] = male, C57BL/6, mouse, in vivo, ip, 10 mg/kg, Brain concentration, individual animal
[7] = male, C57BL/6, mouse, in vivo, ip, 10 mg/kg, Mean brain conc.
[8] = male, C57BL/6, mouse, in vivo, ip, 10 mg/kg, Mean plasma conc.
[9] = male, C57BL/6, mouse, in vivo, ip, 10 mg/kg, Plasma concentration, individual animal
[10] = male, C57BL/6, mouse, in vivo, iv, 2 mg/kg
[11] = male, C57BL/6, mouse, in vivo, iv, 2 mg/kg, 3 h
[12] = male, C57BL/6, mouse, in vivo, iv, 2 mg/kg, 6 h
[13] = male, C57BL/6, mouse, in vivo, iv, 2 mg/kg, 12 h
[14] = male, C57BL/6, mouse, in vivo, iv, 2 mg/kg, 24 h
[15] = male, C57BL/6, mouse, in vivo, iv, 2 mg/kg, Brain concentration, individual animal
[16] = male, C57BL/6, mouse, in vivo, iv, 2 mg/kg, Mean brain conc.

**Q.** With `[2H]C1([2H])Oc2ccc(Nc3nc(-c4c(C)nc5ccccn45)cs3)cc2O1` [Compound 17, N-(benzo[d][1,3]dioxol-5-yl-2,2-d2)-4-(2-methylimidazo[1,2-c]pyridin-3-yl)thiazol-2-amine hydrochloride] as the compound, how does the “Oral bioavailability, % F” value (PO 10 mg/kg, AUClast considered, hydrochloride, 10 mg/kg) read?
**A.** ~100%

**Q.** And the AUClast (brain, IP 10 mg/kg)?
**A.** 360.87 ng·h/g

**Q.** And the AUClast (brain, IV 2 mg/kg)?
**A.** 97.08 ng·h/g

**Q.** What about the AUCinf (brain, PO 10 mg/kg) of the same compound?
**A.** 204.06 ng·h/g

**Q.** And the AUClast (brain, PO 10 mg/kg)?
**A.** 171.84 ng·h/g

**Q.** What about the Kp at 0.08 h [1] of the same compound?
**A.** 0.61

**Q.** What about the Kp at 0.35 h [1] of the same compound?
**A.** 0.52

**Q.** What about the Kp at 1 h [1] of the same compound?
**A.** 0.39

**Q.** And the Kp at 3 h [1]?
**A.** 1.1

**Q.** And the Kp at 6 h [1]?
**A.** 0.59

**Q.** And the Kp (male, C57BL/6, mouse, brain, ip, 10 mg/kg, IP 10 mg/kg, read-out: brain-to-plasma ratio, range over time)?
**A.** 0.39 to 1.1

**Q.** What about the Kp (male, C57BL/6, mouse, brain, iv, 2 mg/kg, IV 2 mg/kg, read-out: brain-to-plasma ratio, range over time) of the same compound?
**A.** 0.18 to 4.03

**Q.** What about the Kp at 0.08 h [2] of the same compound?
**A.** 0.33

**Q.** What about the Kp at 0.35 h [2] of the same compound?
**A.** 0.32

**Q.** What about the Kp at 1 h [2] of the same compound?
**A.** 0.48

**Q.** And the Kp at 3 h [2]?
**A.** 0.32

**Q.** What about the Kp at 6 h [2] of the same compound?
**A.** 0.23

**Q.** What about the Kp (male, C57BL/6, mouse, brain, po, 10 mg/kg, PO 10 mg/kg, read-out: brain-to-plasma ratio, range over time) of the same compound?
**A.** 0.23 to 0.48

**Q.** What about the Kp (male, C57BL/6, mouse, brain, po, 10 mg/kg, summary data, read-out: Brain to plasma ratio following a single oral dose) of the same compound?
**A.** 0.48

**Q.** And the “Brain concentrations quantifiable up to” value [3]?
**A.** up to 6 hr

**Q.** And the “Plasma concentrations quantifiable up to” value [3]?
**A.** up to 6 hr

**Q.** And the “Brain concentration, individual animal” value [4]?
**A.** 0.00 ng/g

**Q.** What about the “Plasma concentration, individual animal” value [4] of the same compound?
**A.** 0.00 ng/mL

**Q.** What about the “Brain concentration, individual animal” value [5] of the same compound?
**A.** 0.00 ng/g

**Q.** What about the “Plasma concentration, individual animal” value [5] of the same compound?
**A.** 0.00 ng/mL

**Q.** And the concentration at 0.08 h [6]?
**A.** 285 ng/g

**Q.** And the concentration at 0.35 h [6]?
**A.** 291 ng/g

**Q.** And the concentration at 1 h [6]?
**A.** 65.9 ng/g

**Q.** And the concentration at 12 h [6]?
**A.** 0 ng/g

**Q.** And the concentration at 24 h [6]?
**A.** 0 ng/g

**Q.** And the concentration at 0.35 h [7]?
**A.** 236 ng/g

**Q.** And the concentration at 1 h [7]?
**A.** 90.3 ng/g

**Q.** And the concentration at 3 h [7]?
**A.** 82 ng/g

**Q.** What about the concentration at 6 h [7] of the same compound?
**A.** 26 ng/g

**Q.** What about the concentration at 12 h [7] of the same compound?
**A.** 0 ng/g

**Q.** And the concentration at 24 h [7]?
**A.** 0 ng/g

**Q.** And the concentration at 0.35 h [8]?
**A.** 458 ng/mL

**Q.** And the concentration at 1 h [8]?
**A.** 232 ng/mL

**Q.** What about the concentration at 3 h [8] of the same compound?
**A.** 74.9 ng/mL

**Q.** And the concentration at 6 h [8]?
**A.** 43.7 ng/mL

**Q.** What about the concentration at 12 h [8] of the same compound?
**A.** 0 ng/mL

**Q.** And the concentration at 24 h [8]?
**A.** 0 ng/mL

**Q.** And the concentration at 0.08 h [9]?
**A.** 530 ng/mL

**Q.** And the concentration at 0.35 h [9]?
**A.** 478 ng/mL

**Q.** And the concentration at 1 h [9]?
**A.** 223 ng/mL

**Q.** And the concentration at 12 h [9]?
**A.** 0 ng/mL

**Q.** And the concentration at 24 h [9]?
**A.** 0 ng/mL

**Q.** And the “Brain concentrations quantifiable up to” value [10]?
**A.** up to 1 hr

**Q.** What about the “Vss, fold more than normal volume of total body water (0.7 L/kg)” value [10] of the same compound?
**A.** 6.3 fold

**Q.** What about the “Brain concentration, individual animal” value [11] of the same compound?
**A.** 0.00 ng/g

**Q.** And the “Plasma concentration, individual animal” value [11]?
**A.** 0.00 ng/mL

**Q.** What about the “Brain concentration, individual animal” value [12] of the same compound?
**A.** 0.00 ng/g

**Q.** And the “Plasma concentration, individual animal” value [12]?
**A.** 0.00 ng/mL

**Q.** And the “Brain concentration, individual animal” value [13]?
**A.** 0.00 ng/g

**Q.** What about the “Plasma concentration, individual animal” value [13] of the same compound?
**A.** 0.00 ng/mL

**Q.** And the “Brain concentration, individual animal” value [14]?
**A.** 0.00 ng/g

**Q.** What about the “Plasma concentration, individual animal” value [14] of the same compound?
**A.** 0.00 ng/mL

**Q.** And the concentration at 0.08 h [15]?
**A.** 44.7 ng/g

**Q.** And the concentration at 1 h [15]?
**A.** 17.1 ng/g

**Q.** And the concentration at 3 h [15]?
**A.** 0 ng/g

**Q.** What about the concentration at 6 h [15] of the same compound?
**A.** 0 ng/g

**Q.** What about the concentration at 12 h [15] of the same compound?
**A.** 0 ng/g

**Q.** And the concentration at 24 h [15]?
**A.** 0 ng/g

**Q.** And the concentration at 0.08 h [16]?
**A.** 44.9 ng/g

**Q.** And the concentration at 0.35 h [16]?
**A.** 180 ng/g

**Q.** What about the concentration at 1 h [16] of the same compound?
**A.** 13.8 ng/g

**Q.** And the concentration at 3 h [16]?
**A.** 0 ng/g
